Publication PMC10587871 (Bioconjugate Chemistry, 2023)
Where a SMILES comes first, the peptide text is derived from it. The star is where a group is joined. 5FAM = O=C1OC2(c3ccc(O)cc3Oc3cc(O)ccc32)c2ccc(C(=O)*)cc21

System: MM6 cell line
Details: 5(6)-FAM-labeled peptides 10 μM, MM6 cells, 2 h, flow cytometry FITC channel, trypan blue quenching

SMILES	Internalization (cellular uptake) profile
CC[C@H](C)[C@H](NC(=O)[C@H](C)NC(=O)[C@H](CCC(N)=O)NC(=O)[C@H](Cc1c[nH]c2ccccc12)NC(=O)[C@H](CC(C)C)NC(=O)[C@H](CCCCN)NC(=O)[C@H](CCCCN)NC(=O)[C@@H](NC(=O)[C@H](Cc1ccc(O)cc1)NC(=O)[C@H](C)NC(=O)c1ccc2c(c1)C(=O)OC21c2ccc(O)cc2Oc2cc(O)ccc21)[C@@H](C)O)C(=O)N[C@@H](CCCNC(=N)N)C(=O)N[C@@H](C)C(=O)N[C@@H](CCC(N)=O)C(=O)N[C@@H](CC(=O)O)C(=O)N[C@H](C(N)=O)C(C)C [RpfA (377–391)] (5FAM-AYTKKLWQAIRAQDV-NH2)	weak internalization profile
CC(C)[C@H](NC(=O)[C@H](C)NC(=O)[C@@H](NC(=O)CNC(=O)[C@H](C)NC(=O)c1ccc2c(c1)C(=O)OC21c2ccc(O)cc2Oc2cc(O)ccc21)[C@@H](C)O)C(=O)N[C@@H](CCC(N)=O)C(=O)N[C@@H](CC(=O)O)C(=O)N[C@@H](CO)C(=O)N[C@@H](CCCNC(=N)N)C(=O)N[C@@H](CO)C(=O)N[C@@H](Cc1c[nH]cn1)C(=O)N[C@H](C(=O)N[C@@H](Cc1ccc(O)cc1)C(=O)N[C@@H](C)C(=O)N[C@@H](Cc1c[nH]cn1)C(N)=O)C(C)C [Rv1733c (63–77)] (5FAM-AGTAVQDSRSHVYAH-NH2)	weak internalization profile
CC[C@H](C)[C@H](NC(=O)[C@H](CCCCN)NC(=O)[C@H](CCC(=O)O)NC(=O)[C@H](Cc1ccc(O)cc1)NC(=O)[C@@H]1CCCN1C(=O)[C@H](CC(=O)O)NC(=O)c1ccc2c(c1)C(=O)OC21c2ccc(O)cc2Oc2cc(O)ccc21)C(=O)NCC(=O)N[C@@H](C)C(=O)N[C@@H](CCC(=O)O)C(=O)N[C@@H](CC(C)C)C(=O)N[C@H](C(=O)N[C@@H](CCCCN)C(N)=O)C(C)C [Grol2 (63–78)]	highest cell internalization among MHC II binding epitopes
C[C@H](NC(=O)[C@H](C)NC(=O)[C@H](CCCCN)NC(=O)[C@H](CCCCN)NC(=O)[C@H](C)NC(=O)[C@@H]1CCCN1C(=O)[C@H](C)NC(=O)[C@H](CCCCN)NC(=O)c1ccc2c(c1)C(=O)OC21c2ccc(O)cc2Oc2cc(O)ccc21)C(=O)N[C@@H](C)C(=O)N[C@@H](CCCCN)C(N)=O [HBHA (185–194)] (5FAM-KAPAKKAAAK-NH2)	significant cellular uptake
